Reference: publication PMC12136037, “Type II kinase inhibitors that target Parkinson’s disease–associated LRRK2” (Science Advances, 2025)
Several values for one entry are separate records, joined by “and”; a condition that tells them apart may be missing. Equal entries are not always repeated. Where two headings read alike, the source gives them in different places.

How the values were obtained:
Assay in all cases: nanoBRET off-target validation
Format in all cases: cell-based
TTK = molecular target: T1, TTK (Homo sapiens, UniProt P33981)
T1 construct: host or cells: HEK293T (ATCC CRL-3216)
T1 sequence (P33981 1-857): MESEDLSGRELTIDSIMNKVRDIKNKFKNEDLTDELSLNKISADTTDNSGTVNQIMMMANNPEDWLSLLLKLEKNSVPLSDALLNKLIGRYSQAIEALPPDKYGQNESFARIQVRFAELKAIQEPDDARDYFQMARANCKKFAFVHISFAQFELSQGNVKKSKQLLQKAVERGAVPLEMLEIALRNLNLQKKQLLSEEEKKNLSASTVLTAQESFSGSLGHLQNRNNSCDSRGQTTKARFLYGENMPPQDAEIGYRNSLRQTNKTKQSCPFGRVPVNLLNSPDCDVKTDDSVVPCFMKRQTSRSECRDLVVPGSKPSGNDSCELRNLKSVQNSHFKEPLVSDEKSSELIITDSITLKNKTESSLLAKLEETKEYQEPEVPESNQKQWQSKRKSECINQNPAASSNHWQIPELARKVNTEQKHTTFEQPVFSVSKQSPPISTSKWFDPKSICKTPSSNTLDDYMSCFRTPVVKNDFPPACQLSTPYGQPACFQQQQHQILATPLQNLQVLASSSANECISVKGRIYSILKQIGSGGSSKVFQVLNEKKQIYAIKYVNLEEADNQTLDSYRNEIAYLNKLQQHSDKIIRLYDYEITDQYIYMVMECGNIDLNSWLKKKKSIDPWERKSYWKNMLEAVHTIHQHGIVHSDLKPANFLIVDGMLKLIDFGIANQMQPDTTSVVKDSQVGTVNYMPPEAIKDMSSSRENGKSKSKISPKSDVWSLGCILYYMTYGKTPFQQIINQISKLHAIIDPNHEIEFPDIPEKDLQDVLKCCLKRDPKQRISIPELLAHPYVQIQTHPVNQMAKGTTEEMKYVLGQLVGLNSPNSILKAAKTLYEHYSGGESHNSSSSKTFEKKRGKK
Method: (§1) The assay was performed as described previously ([61]). In brief, full-length kinases as listed in table S6 were obtained as plasmids cloned in frame with terminal NanoLuc-fusion (gift from Promega; table S6). […] Serially diluted inhibitor and corresponding tracer as listed in table S6 at the Tracer KD concentration taken from TracerDB (tracerdb.org) ([62]) were pipetted into white 384-well plates (Greiner, 781207) using an ECHO acoustic dispenser (Labcyte). The corresponding protein-transfected cells were added and reseeded at a density of 2 × 10^5 cells/ml after trypsinization and resuspending in Opti-MEM without phenol red (Life Technologies). The system was allowed to equilibrate for 3 hours at 37°C/5% CO2 before bioluminescence resonance energy transfer (BRET) measurements. To measure BRET, NanoBRET NanoGlo Substrate + extracellular NanoLuc Inhibitor (Promega, N2540) was added as per the manufacturer’s protocol, and filtered luminescence was measured on a PHERAstar plate reader (BMG Labtech) equipped with a luminescence filter pair [450-nm BP filter (donor) and 610-nm LP filter (acceptor)]. […] (For step-by-step protocol, see www.eubopen.org/sites/www.eubopen.org/files/attachments/2021/NanoBRET-IC50_v1_0.pdf.)

JNK2 = molecular target: T2, JNK2 (Homo sapiens, UniProt P45984)
T2 construct: host or cells: HEK293T (ATCC CRL-3216)
T2 sequence (P45984 whole entry): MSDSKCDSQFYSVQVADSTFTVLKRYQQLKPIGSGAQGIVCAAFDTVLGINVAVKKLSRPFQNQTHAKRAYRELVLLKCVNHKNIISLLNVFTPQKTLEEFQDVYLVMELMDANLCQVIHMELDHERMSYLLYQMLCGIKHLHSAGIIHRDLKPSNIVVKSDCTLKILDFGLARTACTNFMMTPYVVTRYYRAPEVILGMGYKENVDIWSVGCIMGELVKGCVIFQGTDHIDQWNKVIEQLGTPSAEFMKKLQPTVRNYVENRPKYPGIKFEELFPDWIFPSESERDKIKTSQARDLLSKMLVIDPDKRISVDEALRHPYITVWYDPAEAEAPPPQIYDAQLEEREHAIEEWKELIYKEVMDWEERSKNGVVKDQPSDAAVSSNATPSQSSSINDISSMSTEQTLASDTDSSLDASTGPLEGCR
Method: as §1

CLK1 = molecular target: T3, CLK1 (Homo sapiens, UniProt P49759)
T3 construct: host or cells: HEK293T (ATCC CRL-3216)
T3 sequence (P49759 whole entry): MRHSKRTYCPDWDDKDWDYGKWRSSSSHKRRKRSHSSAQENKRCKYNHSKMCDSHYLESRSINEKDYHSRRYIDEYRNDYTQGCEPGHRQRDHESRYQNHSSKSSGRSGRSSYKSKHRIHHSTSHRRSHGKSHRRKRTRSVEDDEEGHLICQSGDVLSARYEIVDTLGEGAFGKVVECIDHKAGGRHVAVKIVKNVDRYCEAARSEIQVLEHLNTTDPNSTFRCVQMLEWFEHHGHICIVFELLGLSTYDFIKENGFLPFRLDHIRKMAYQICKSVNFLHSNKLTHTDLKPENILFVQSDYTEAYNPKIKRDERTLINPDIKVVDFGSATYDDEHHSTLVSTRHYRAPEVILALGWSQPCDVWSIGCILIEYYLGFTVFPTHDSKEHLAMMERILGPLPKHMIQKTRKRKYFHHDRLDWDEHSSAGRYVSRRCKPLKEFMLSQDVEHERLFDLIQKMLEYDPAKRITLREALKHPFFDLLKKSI
Method: as §1

[1] = in cellulo nanoBRET, 293T cells

CCSc1nc(NC)c2c(-c3cccc(NC(=O)Nc4cc(C(C)(C)C)nn4-c4ccc(C)cc4)c3)c[nH]c2n1 [Compound 32]
nanoBRET response normalized to 0% (no tracer) and 100% (no inhibitor) control (TTK; TTK, inhibitor 8 nM, two replicates, listed as RN341, 0.008 µM): 91.3329%
remaining activity at 0.008 µM (TTK; TTK, inhibitor 8 nM, two replicates, read-out: nanoBRET response normalized to 0% (no tracer) and 100% (no inhibitor) control): 96.9%
nanoBRET response normalized to 0% (no tracer) and 100% (no inhibitor) control (TTK; TTK, inhibitor 16 nM, two replicates, listed as RN341, 0.016 µM): 88.618%
remaining activity at 0.016 µM (TTK; TTK, inhibitor 16 nM, two replicates, read-out: nanoBRET response normalized to 0% (no tracer) and 100% (no inhibitor) control): 84.1%
nanoBRET response normalized to 0% (no tracer) and 100% (no inhibitor) control (TTK; TTK, inhibitor 50 nM, two replicates, listed as RN341, 0.05 µM): 96.6909%
remaining activity at 0.05 µM (TTK; TTK, inhibitor 50 nM, two replicates, read-out: nanoBRET response normalized to 0% (no tracer) and 100% (no inhibitor) control): 85.3%
nanoBRET response normalized to 0% (no tracer) and 100% (no inhibitor) control (TTK; TTK, inhibitor 250 nM, two replicates, listed as RN341, […]): 83.1162%
remaining activity at […] (TTK; TTK, inhibitor 250 nM, two replicates, read-out: nanoBRET response normalized to 0% (no tracer) and 100% (no inhibitor) control): 80%
nanoBRET response normalized to 0% (no tracer) and 100% (no inhibitor) control (TTK; TTK, inhibitor 500 nM, two replicates, listed as RN341, 0.5 µM): 67.3053%
remaining activity at 0.5 µM (TTK; TTK, inhibitor 500 nM, two replicates, read-out: nanoBRET response normalized to 0% (no tracer) and 100% (no inhibitor) control): 61.5%
nanoBRET response normalized to 0% (no tracer) and 100% (no inhibitor) control (TTK; TTK, inhibitor 2500 nM, two replicates, listed as RN341, […]): 72.9908%
remaining activity at […] (TTK; TTK, inhibitor 2500 nM, two replicates, read-out: nanoBRET response normalized to 0% (no tracer) and 100% (no inhibitor) control): 70.3%
nanoBRET response normalized to 0% (no tracer) and 100% (no inhibitor) control (TTK; TTK, inhibitor 5000 nM, two replicates, listed as RN341, 5 µM): 54.1735%
remaining activity at 5 µM (TTK; TTK, inhibitor 5000 nM, two replicates, read-out: nanoBRET response normalized to 0% (no tracer) and 100% (no inhibitor) control): 40.9%
nanoBRET response normalized to 0% (no tracer) and 100% (no inhibitor) control (TTK; TTK, inhibitor 25000 nM, two replicates, listed as RN341, 25 µM): 18.6146%
remaining activity at 25 µM (TTK; TTK, inhibitor 25000 nM, two replicates, read-out: nanoBRET response normalized to 0% (no tracer) and 100% (no inhibitor) control): 14.2%
EC50 (TTK; [1]): < 5 µM and 3.2 µM
nanoBRET response normalized to 0% (no tracer) and 100% (no inhibitor) control (JNK2; JNK2, inhibitor 8 nM, two replicates, listed as RN341, 0.008 µM): 97.2218%
remaining activity at 0.008 µM (JNK2; JNK2, inhibitor 8 nM, two replicates, read-out: nanoBRET response normalized to 0% (no tracer) and 100% (no inhibitor) control): 103%
nanoBRET response normalized to 0% (no tracer) and 100% (no inhibitor) control (JNK2; JNK2, inhibitor 16 nM, two replicates, listed as RN341, 0.016 µM): 96.1223%
remaining activity at 0.016 µM (JNK2; JNK2, inhibitor 16 nM, two replicates, read-out: nanoBRET response normalized to 0% (no tracer) and 100% (no inhibitor) control): 95.8%
nanoBRET response normalized to 0% (no tracer) and 100% (no inhibitor) control (JNK2; JNK2, inhibitor 50 nM, two replicates, listed as RN341, 0.05 µM): 96.724%
remaining activity at 0.05 µM (JNK2; JNK2, inhibitor 50 nM, two replicates, read-out: nanoBRET response normalized to 0% (no tracer) and 100% (no inhibitor) control): 91.7%
nanoBRET response normalized to 0% (no tracer) and 100% (no inhibitor) control (JNK2; JNK2, inhibitor 250 nM, two replicates, listed as RN341, […]): 80.9747%
remaining activity at […] (JNK2; JNK2, inhibitor 250 nM, two replicates, read-out: nanoBRET response normalized to 0% (no tracer) and 100% (no inhibitor) control): 78.7%
nanoBRET response normalized to 0% (no tracer) and 100% (no inhibitor) control (JNK2; JNK2, inhibitor 500 nM, two replicates, listed as RN341, 0.5 µM): 61.7006%
remaining activity at 0.5 µM (JNK2; JNK2, inhibitor 500 nM, two replicates, read-out: nanoBRET response normalized to 0% (no tracer) and 100% (no inhibitor) control): 65.3%
nanoBRET response normalized to 0% (no tracer) and 100% (no inhibitor) control (JNK2; JNK2, inhibitor 2500 nM, two replicates, listed as RN341, […]): 73.4181%
remaining activity at […] (JNK2; JNK2, inhibitor 2500 nM, two replicates, read-out: nanoBRET response normalized to 0% (no tracer) and 100% (no inhibitor) control): 71.9%
nanoBRET response normalized to 0% (no tracer) and 100% (no inhibitor) control (JNK2; JNK2, inhibitor 5000 nM, two replicates, listed as RN341, 5 µM): 50.6395%
remaining activity at 5 µM (JNK2; JNK2, inhibitor 5000 nM, two replicates, read-out: nanoBRET response normalized to 0% (no tracer) and 100% (no inhibitor) control): 57.2%
nanoBRET response normalized to 0% (no tracer) and 100% (no inhibitor) control (JNK2; JNK2, inhibitor 25000 nM, two replicates, listed as RN341, 25 µM): 6.955%
remaining activity at 25 µM (JNK2; JNK2, inhibitor 25000 nM, two replicates, read-out: nanoBRET response normalized to 0% (no tracer) and 100% (no inhibitor) control): 9.64%
EC50 (JNK2; [1]): < 5 µM and 2.7 µM
EC50 (CLK1): 6 µM
nanoBRET response normalized to 0% (no tracer) and 100% (no inhibitor) control (CLK1; CLK1, inhibitor 8 nM, two replicates, listed as RN341, 0.008 µM): 96.3388%
normalized NanoBRET tracer signal at 0.008 µM (CLK1; CLK1, inhibitor 8 nM, two replicates, read-out: nanoBRET response normalized to 0% (no tracer) and 100% (no inhibitor) control): 99.4%
nanoBRET response normalized to 0% (no tracer) and 100% (no inhibitor) control (CLK1; CLK1, inhibitor 16 nM, two replicates, listed as RN341, 0.016 µM): 93.1575%
normalized NanoBRET tracer signal at 0.016 µM (CLK1; CLK1, inhibitor 16 nM, two replicates, read-out: nanoBRET response normalized to 0% (no tracer) and 100% (no inhibitor) control): 93.9%
nanoBRET response normalized to 0% (no tracer) and 100% (no inhibitor) control (CLK1; CLK1, inhibitor 50 nM, two replicates, listed as RN341, 0.05 µM): 98.6143%
normalized NanoBRET tracer signal at 0.05 µM (CLK1; CLK1, inhibitor 50 nM, two replicates, read-out: nanoBRET response normalized to 0% (no tracer) and 100% (no inhibitor) control): 97.1%
